Format in all cases: cell-based
In assay [1] the target is T1, IKZF1 Ikaros (Homo sapiens, UniProt Q13422+Q96SW2). Description: Jurkat Cellular Degradation Assay. Conditions: Jurkat cells, 72 h; for IKZF1 Ikaros max % deg. observed: flow cytometry, 100% = complete degradation. Further details: HELIOS-PE-Cy7, EOS-PE, IKAROS-PECF594, AIOLOS-AF647; endogenous in cells. As for the experimental part:
(§1) Jurkat cells were plated at 80,000 cells/well in 40 μL RPMI+10% FBS in a 384-well cell culture plate prior to using acoustic dispensing technology for adding a compound of interest. Cell cultures were incubated for 72 h at 37° C., and 5% CO2. In order to facilitate analysis, cell cultures were spun down at 200 rpm for 5 min and the supernatant was discarded. After shaking the plate to dislodge the cell pellet, cells were resuspended in 50 qL of Fixation Buffer (eBioscience FoxP3 buffer set 00-5523-00) for 60 min at room temperature. After centrifuging and discarding the supernatant, cells were permeabilized with 50 μL of Permeabilization buffer (eBioscience FoxP3 buffer set 00-5523-00) for 10 min at room temperature. Following permeabilization, cells were spun down and the supernatant was replaced with 20 μL fluorescently labelled antibodies against Helios, Ikaros and Aiolos or corresponding Isotype controls in 1-Penneabilization buffer (Ikaros-Alexa488 [Biolegend, Cat #368408, 1:50], Helios-PE [CST, Cat #29360, 1:50], Aiolos-Alexa647 [Biolegend, Cat #371106 Biolegend, 1:25]) and staining reactions were incubated for 1 h at room temperature while protected from light. Subsequently, 30 μL of 1× Permeabilization buffer was added prior to centrifuging the cells and discarding the supernatant. Stained cells were resuspended in 25 μL of flow cytometry staining buffer [PBS+0.2% bovine serum albumin (BSA)] and analyzed using an Intellicyt Ique Plus flow cytometer.
In general terms: A flow cytometer gives signals particle by particle.

In assay [2] the target is T2, IKZF3 Aiolos (Homo sapiens, UniProt Q96SW2+Q9UKT9). Description: Jurkat Cellular Degradation Assay. Conditions: Jurkat cells, 72 h; for IKZF3 Aiolos max % deg. observed: flow cytometry, 100% = complete degradation. As for the experimental part: as §1
T2 sequence (Q9UKT9 whole entry): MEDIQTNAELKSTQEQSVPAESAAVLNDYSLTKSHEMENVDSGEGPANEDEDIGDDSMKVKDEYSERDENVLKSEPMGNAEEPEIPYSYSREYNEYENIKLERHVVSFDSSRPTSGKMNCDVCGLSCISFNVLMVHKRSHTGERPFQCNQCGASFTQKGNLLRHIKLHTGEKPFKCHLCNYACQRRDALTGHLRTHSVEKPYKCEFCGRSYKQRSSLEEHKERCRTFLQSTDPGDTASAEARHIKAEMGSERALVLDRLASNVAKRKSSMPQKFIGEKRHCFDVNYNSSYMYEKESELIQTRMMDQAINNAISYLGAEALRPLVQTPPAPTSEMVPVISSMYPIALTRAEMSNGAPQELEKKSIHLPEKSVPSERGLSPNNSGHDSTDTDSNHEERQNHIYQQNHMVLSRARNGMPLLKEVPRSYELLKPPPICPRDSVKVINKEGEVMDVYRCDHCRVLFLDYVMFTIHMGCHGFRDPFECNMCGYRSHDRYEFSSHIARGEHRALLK
T2 sequence (Q96SW2 whole entry): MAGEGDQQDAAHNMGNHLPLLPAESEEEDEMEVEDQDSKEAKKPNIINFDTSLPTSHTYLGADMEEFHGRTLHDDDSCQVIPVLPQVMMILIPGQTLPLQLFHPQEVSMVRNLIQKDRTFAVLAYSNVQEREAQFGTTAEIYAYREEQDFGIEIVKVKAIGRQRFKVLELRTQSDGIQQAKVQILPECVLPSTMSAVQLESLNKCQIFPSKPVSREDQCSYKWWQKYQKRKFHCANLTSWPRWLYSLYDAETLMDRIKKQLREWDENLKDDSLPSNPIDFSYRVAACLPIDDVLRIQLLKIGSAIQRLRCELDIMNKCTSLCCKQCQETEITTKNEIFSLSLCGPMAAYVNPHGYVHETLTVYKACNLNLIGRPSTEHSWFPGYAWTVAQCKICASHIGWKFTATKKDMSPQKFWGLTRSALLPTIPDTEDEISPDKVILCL
T2 sequence (Q16531 whole entry partner): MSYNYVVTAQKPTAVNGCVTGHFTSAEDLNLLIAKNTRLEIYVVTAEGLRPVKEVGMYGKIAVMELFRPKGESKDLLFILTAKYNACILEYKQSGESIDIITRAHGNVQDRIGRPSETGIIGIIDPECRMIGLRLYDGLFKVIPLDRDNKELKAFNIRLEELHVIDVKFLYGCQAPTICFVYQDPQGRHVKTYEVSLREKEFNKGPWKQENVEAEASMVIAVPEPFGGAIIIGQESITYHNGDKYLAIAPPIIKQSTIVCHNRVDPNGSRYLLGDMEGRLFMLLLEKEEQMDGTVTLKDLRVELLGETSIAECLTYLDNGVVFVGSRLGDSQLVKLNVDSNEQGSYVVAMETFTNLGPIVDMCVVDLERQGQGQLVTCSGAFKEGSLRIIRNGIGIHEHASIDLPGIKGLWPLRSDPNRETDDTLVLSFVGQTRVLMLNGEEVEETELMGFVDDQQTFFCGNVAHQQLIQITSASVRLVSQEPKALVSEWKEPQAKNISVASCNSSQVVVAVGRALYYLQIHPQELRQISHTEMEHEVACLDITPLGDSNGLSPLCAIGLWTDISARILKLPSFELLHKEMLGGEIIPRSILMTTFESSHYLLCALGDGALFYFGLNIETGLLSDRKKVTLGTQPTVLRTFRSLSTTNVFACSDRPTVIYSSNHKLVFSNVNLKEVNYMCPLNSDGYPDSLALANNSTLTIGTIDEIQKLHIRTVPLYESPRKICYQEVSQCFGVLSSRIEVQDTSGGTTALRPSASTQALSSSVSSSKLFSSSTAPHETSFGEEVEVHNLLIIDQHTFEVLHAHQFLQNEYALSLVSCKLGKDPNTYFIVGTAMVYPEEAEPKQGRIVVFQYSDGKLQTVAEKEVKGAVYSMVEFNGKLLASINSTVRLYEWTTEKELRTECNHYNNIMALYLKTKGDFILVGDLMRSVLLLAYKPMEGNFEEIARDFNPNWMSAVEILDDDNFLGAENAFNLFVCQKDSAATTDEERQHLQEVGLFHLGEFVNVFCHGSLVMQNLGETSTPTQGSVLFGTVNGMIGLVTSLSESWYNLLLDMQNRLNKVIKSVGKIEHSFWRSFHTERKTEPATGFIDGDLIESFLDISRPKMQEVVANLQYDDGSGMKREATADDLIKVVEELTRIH
In assay [3] the target is T3, IKZF2 Helios (Homo sapiens, UniProt Q96SW2+Q9UKS7). The experiment in a line: Human T Regulatory Cells Reprogramming Assay. Further details: endogenous in cells; host or cells: primary human CD4+CD127lowCD25+ Treg cells sorted from healthy-donor leukopaks. Conditions: sorted human Treg cells, 12-13 days; 50% reduction vs DMSO. On the procedure:
(§2) Human CD4^+ T cells were isolated from fresh healthy leukopaks (Stemcell Technologies) using the RosetteSep Human CD4^+ T cell enrichment cocktail (Stemcell Technologies) and Ficoll density gradient centrifugation. Leukopaks were diluted with an equal volume of phosphate-buffered saline (PBS [Gibco]) supplemented with 2% fetal bovine serum (FBS, VWR Lifescience) and incubated with RosetteSep Human CD4^+ T cell enrichment cocktail for 20 minutes before layering on Ficoll-Paque Plus solution (GE Health Care). The cell-rich interface layer was harvested and washed twice with PBS supplemented with 2% FBS. Regulatory T cells were then isolated manually using the EasySep Human CD4^+CD127^lowCD25^+ Regulatory T cell isolation kit (Stemcell Technologies) according to the manufacturer's instructions. Cells were rested overnight in Roswell Park Memorial Institute (RPMI) 1640 media (Gibco) supplemented with 10% FBS, Pen/Strep (Gibco), MEM-NEAA (Gibco), and sodium pyruvate (Gibco) in a humidified incubator (37° C., 5% CO2). […]
(§3) For flow cytometry staining, cells were washed twice with flow cytometry staining buffer (Thermo Fisher) and incubated in Human Tru-stain Fc block (Biolegend) for 10 minutes before adding eFluor780 viability dye (Thermo Fisher) and surface marker antibody cocktail for 30 minutes at 4° C. […] Data were analyzed using FlowJo version 10 and GraphPad Prism Software.

The next assay deals with T4, IKZF4 Eos (Homo sapiens, UniProt Q96SW2+Q9H2S9).
T4 construct: endogenous in cells; host or cells: primary human CD4+CD127lowCD25+ Treg cells sorted from healthy-donor leukopaks
T4 sequence (Q9H2S9 whole entry): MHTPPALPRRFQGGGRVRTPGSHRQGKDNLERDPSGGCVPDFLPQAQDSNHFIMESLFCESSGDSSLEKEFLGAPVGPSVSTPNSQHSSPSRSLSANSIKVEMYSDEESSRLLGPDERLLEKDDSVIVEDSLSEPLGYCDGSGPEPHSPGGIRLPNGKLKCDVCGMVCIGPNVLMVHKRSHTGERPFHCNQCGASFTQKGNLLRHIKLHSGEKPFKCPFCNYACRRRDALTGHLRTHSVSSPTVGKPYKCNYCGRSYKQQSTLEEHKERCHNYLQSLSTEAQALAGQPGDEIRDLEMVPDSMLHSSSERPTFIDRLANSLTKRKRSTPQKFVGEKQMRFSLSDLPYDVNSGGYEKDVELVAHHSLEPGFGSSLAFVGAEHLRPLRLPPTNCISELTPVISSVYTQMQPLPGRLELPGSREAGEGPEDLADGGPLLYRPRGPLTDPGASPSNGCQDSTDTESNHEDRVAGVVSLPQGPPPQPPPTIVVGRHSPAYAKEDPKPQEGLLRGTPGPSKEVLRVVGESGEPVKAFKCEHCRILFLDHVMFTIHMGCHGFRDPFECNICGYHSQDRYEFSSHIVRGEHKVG
T4 sequence (Q96SW2 whole entry): as the sequence (Q96SW2 whole entry) above
T4 sequence (Q16531 whole entry partner): as the sequence (Q16531 whole entry partner) above
Description: Human T Regulatory Cells Reprogramming Assay. Conditions: sorted human Treg cells, 12-13 days; 50% reduction vs DMSO. As for the experimental part: as §2, §3

Assay [4] deals with T1, IKZF1 Ikaros. The experiment in a line: Human T Regulatory Cells Degradation Assay. Further details: HELIOS-PE-Cy7, EOS-PE, IKAROS-PECF594, AIOLOS-AF647; endogenous in cells. Particulars: 20 hours.
Assay [5] concerns the target T3, IKZF2 Helios. Description: Human T Regulatory Cells Degradation Assay. Further details: endogenous in cells; host or cells: primary human CD4+CD127lowCD25+ Treg cells sorted from healthy-donor leukopaks. Conditions: 20 hours. As for the experimental part: Cryopreserved human T regulatory cells were thawed in RPMI+10% FBS+20 ng/mL IL-2. After being spun at 1200 rpm for 5 mins, the cells were resuspended in RPMI+10% FBS+20 ng/mL and rested at 37° C. with 5% CO2 for 3 hours. The cells were then plated at 40,000 cells/well in 40 μL RPMI+10% FBS+20 ng/mL human IL-2 in a 384 well cell culture plate prior to using acoustic dispensing technology (ECHO 555) for adding compounds of interest. Cell cultures were incubated for 20 hours at 37° C., and 5% CO2. In order to facilitate analysis, cell cultures were spun down at 1200 rpm for 5 minutes and the supernatant was discarded using an EL406 plate washer. After washing three times with 70 μL PBS, cell pellets were resuspended in 50 μL of near IR viability staining solution (Life Technologies, Cat #L34975) and incubated for 30 minutes on ice protected from light. Cells were washed three times with […] PBS+0.5% BSA using an EL406 plate washer. After shaking the plate to dislodge the cell pellet, cells were resuspended in 50 μL of Fixation Buffer (eBioScience FoxP3 buffer set 00-5523-00) for 60 minutes at room temperature. […] Stained cells were resuspended in 30 μL of flow cytometry staining buffer (PBS+0.5% BSA) and analyzed using an Intellicyt Ique Plus flow cytometer.

For assay [6], the target named is T3, IKZF2 Helios. Description: Jurkat Cellular Degradation Assay. Further details: endogenous in cells. Conditions: Jurkat cells, 72 h; concentration reducing protein by 50% vs DMSO. On the procedure: as §1, with “Subsequently, 30 μL of 1× Permeabilization buffer was added prior to centrifuging the cells and discarding the supernatant.” left out
For assay [7], the target named is T1, IKZF1 Ikaros. The experiment in a line: Human CD8+ T Cell Reprogramming Assay (method headed Human CD8+ T Cell Degradation Assay). Further details: HELIOS-PE-Cy7, EOS-PE, IKAROS-PECF594, AIOLOS-AF647; endogenous in cells; host or cells: healthy-donor human PBMC; CD8+ T cells analysed by flow cytometry. Conditions: CD8+ T cells in human PBMC, 24 hours; for IKZF1 Ikaros Maximum Observed Degradation: flow cytometry; for DC50: 50% reduction vs DMSO. As for the experimental part: (§4) Cryopreserved healthy donor human peripheral blood mononuclear cells (PBMC; obtained from Stemcell Technologies or Blood Works Northwest) from two healthy donors were thawed and seeded at 500,000 cells/well of 96-well round bottom plates in RPMI 1640 media (Gibco) supplemented with 10% FBS, Pen/Strep (Gibco), MEM-NEAA (Gibco), and sodium pyruvate (Gibco). Cells were treated with titrated doses of compound for 24 hours at 37° C., 5% CO2 before analyzing by flow cytometry.
(§5) For flow cytometry staining, cells were washed twice with flow cytometry staining buffer (Thermo Fisher) and incubated in Human Tru-stain Fc block (Biolegend) for 10 minutes before adding eFluor780 viability dye (Thermo Fisher) and surface marker antibody cocktail containing LD-eFluor780, CD3-BUV-395, CD4-BUV805, CD8-FITC, CD25-BV605, FoxP3-BV421, HELIOS-PE-Cy7, EOS-PE, IKAROS-PECF594, AIOLOS-AF647 for 30 minutes at 4° C. Cells were then fixed and permeabilized by incubation with permeabilization buffer (eBioscience FoxP3 buffer set 00-5523-00) for 30 minutes at 4° C., as per the kit manufacturer's instructions. Cells were washed twice with the Perm/Wash buffer suppled in the kit as per the manufacturer's instructions and incubated overnight at 4° C. with an intracellular antibody cocktail comprised of antibodies specific for the transcription factors shown in Table C. Cells were washed twice with Perm/Wash buffer and resuspended in flow cytometry staining buffer (Thermo Fisher) prior to acquisition. Sample acquisition and analysis was performed using a BD LSRFortessa (BD Biosciences) flow cytometer. Single stain controls for each fluorochrome were prepared using UltraComp eBead Compensation Beads (Thermo Fisher). Data were analyzed using FlowJo version 10 and GraphPad Prism Software.

In assay [8] the target is T2, IKZF3 Aiolos. Described as above. Further details: HELIOS-PE-Cy7, EOS-PE, IKAROS-PECF594, AIOLOS-AF647; endogenous in cells; host or cells: healthy-donor human PBMC; CD8+ T cells analysed by flow cytometry. Particulars: CD8+ T cells in human PBMC, 24 hours; for IKZF3 Aiolos Maximum Observed Degradation: flow cytometry; for DC50: 50% reduction vs DMSO. On the procedure: as §4, §5

The mark [9] stands for this setting: concentration reducing protein by 50% vs DMSO.

The structures appear in SMILES notation.

Experimental findings from US12331045B2, “Substituted phenyl oxazolone compounds” (Bristol-Myers Squibb Company, priority 2023, dated 2025) are described below.

T3 sequence (Q9UKS7 whole entry): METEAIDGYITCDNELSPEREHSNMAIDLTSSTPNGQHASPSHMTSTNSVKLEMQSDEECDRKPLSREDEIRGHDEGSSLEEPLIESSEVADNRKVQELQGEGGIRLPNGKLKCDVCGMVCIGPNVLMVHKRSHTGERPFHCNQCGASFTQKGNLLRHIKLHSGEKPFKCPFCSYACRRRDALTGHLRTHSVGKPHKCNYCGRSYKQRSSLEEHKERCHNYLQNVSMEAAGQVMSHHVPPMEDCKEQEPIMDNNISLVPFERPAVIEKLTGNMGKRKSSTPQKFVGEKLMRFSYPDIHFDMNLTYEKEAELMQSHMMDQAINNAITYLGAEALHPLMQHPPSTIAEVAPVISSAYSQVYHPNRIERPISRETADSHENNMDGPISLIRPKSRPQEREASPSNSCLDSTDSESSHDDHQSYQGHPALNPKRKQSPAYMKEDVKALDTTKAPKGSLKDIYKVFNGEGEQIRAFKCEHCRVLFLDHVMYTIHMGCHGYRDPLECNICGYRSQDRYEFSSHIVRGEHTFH
T3 sequence (Q96SW2 whole entry): as the sequence (Q96SW2 whole entry) above
T3 sequence (Q16531 whole entry partner): as the sequence (Q16531 whole entry partner) above
T1 sequence (Q13422 whole entry): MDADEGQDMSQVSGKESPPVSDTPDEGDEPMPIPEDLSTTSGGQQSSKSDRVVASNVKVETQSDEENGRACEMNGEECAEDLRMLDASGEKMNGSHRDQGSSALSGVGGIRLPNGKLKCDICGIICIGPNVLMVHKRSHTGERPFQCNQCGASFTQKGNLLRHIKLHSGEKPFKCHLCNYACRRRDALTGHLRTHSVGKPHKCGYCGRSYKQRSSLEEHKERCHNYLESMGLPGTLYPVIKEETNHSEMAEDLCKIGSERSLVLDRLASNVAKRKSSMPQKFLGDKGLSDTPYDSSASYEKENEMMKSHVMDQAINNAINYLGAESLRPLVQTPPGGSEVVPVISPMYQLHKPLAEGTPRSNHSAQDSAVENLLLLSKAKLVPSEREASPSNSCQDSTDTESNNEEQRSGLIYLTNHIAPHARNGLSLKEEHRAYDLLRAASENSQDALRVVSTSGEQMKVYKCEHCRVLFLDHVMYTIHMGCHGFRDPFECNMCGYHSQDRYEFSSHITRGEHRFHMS
T1 sequence (Q96SW2 whole entry): as the sequence (Q96SW2 whole entry) above
T1 sequence (Q16531 whole entry partner): as the sequence (Q16531 whole entry partner) above

With `O=C1CCC(n2cc(-c3ccccc3)oc2=O)C(=O)N1` (stereo not drawn) [Comparative Compound A, 3-(2-oxo-5-phenyloxazol-3(2H)-yl)piperidine-2,6-dione, reference compound], the “IKZF1 Ikaros max % deg. observed” value at IKZF1 Ikaros [1] turned out to be 57%. Also, the “IKZF3 Aiolos max % deg. observed” value at IKZF3 Aiolos [2] is 46%.

`O=C1CCC(n2cc(-c3ccc(Br)cc3F)oc2=O)C(=O)N1` (stereo not drawn) [Comparative Compound B, 3-(5-(4-bromo-2-fluorophenyl)-2-oxooxazol-3(2H)-yl)piperidine-2,6-dione, reference compound]: the “IKZF3 Aiolos max % deg. observed” value on IKZF3 Aiolos [2] amounted to 15%.

For `Cc1cc(-c2ccc(-c3cn(C4CCC(=O)NC4=O)c(=O)o3)c(F)c2)nc(N)c1C` (stereo not drawn) [Example 1, 3-(5-(4-(6-Amino-4,5-dimethylpyridin-2-yl)-2-fluorophenyl)-2-oxooxazol-3(2H)-yl) piperidine-2,6-dione], the DC50 on IKZF2 Helios [3] came to 85 nM; on IKZF1 Ikaros [1] (setting [9]) it was 1080 nM; at IKZF4 Eos it was 1.5 nM; on IKZF1 Ikaros [4] (50% reduction vs DMSO) it was 5470 nM; at IKZF3 Aiolos [2] (setting [9]) it was 4920 nM; on IKZF2 Helios [5] (50% reduction vs DMSO), 5.2 nM. For the same compound, the DC50 at IKZF2 Helios [6] was 13.6 nM; at IKZF1 Ikaros [7] it was 102 nM; on IKZF3 Aiolos [8] it was 19 nM. The “IKZF1 Ikaros max % deg. observed” value is recorded as 66% on IKZF1 Ikaros [1] and 55% at IKZF1 Ikaros [4] (flow cytometry). The “IKZF3 Aiolos max % deg. observed” value at IKZF3 Aiolos [2] is given as 54%. For the same compound, the “IKZF2 Helios max % deg. observed” value on IKZF2 Helios [5] (flow cytometry) worked out at 99%. In addition, the “IKZF1 Ikaros Maximum Observed Degradation” value on IKZF1 Ikaros [7] came out at 74%. Besides, at IKZF3 Aiolos [8], the “IKZF3 Aiolos Maximum Observed Degradation” value stood at 77%.

Take `[2H]C1([2H])C(=O)NC(=O)C([2H])(n2cc(-c3ccc(-c4cc(C)c(C)c(N)n4)cc3F)oc2=O)C1([2H])[2H]` (stereo not drawn) [Example 2, 3-(5-(4-(6-amino-4,5-dimethylpyridin-2-yl)-2-fluorophenyl)-2-oxooxazol-3(2H)-yl) piperidine-2,6-dione-3,4,4,5,5-D5]: the DC50 is 42 nM at IKZF2 Helios [3], 0.63 nM at IKZF4 Eos, 139 nM on IKZF1 Ikaros [7] and 26 nM at IKZF3 Aiolos [8]. The “IKZF1 Ikaros Maximum Observed Degradation” value at IKZF1 Ikaros [7] is 66%. Further, the “IKZF3 Aiolos Maximum Observed Degradation” value on IKZF3 Aiolos [8] is recorded as 71%.
